The first assay has as its target T1, cloned human dopamine D3 receptors (Homo sapiens, UniProt P35462).
T1 construct: expressed in transfected cells; membrane homogenate
The experiment in a line: [N-Methyl-3H]Spiroperidol binding to cloned human dopamine D3 receptors. Particulars: D3 Ki. Put shortly:
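Stably transfected CHO cells expressing cloned human D3 receptor were used as membranes homogenized in 10% DMSO. Ligand was [N-methyl-3H]spiroperidol displacement.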
T1 sequence (P35462 whole entry): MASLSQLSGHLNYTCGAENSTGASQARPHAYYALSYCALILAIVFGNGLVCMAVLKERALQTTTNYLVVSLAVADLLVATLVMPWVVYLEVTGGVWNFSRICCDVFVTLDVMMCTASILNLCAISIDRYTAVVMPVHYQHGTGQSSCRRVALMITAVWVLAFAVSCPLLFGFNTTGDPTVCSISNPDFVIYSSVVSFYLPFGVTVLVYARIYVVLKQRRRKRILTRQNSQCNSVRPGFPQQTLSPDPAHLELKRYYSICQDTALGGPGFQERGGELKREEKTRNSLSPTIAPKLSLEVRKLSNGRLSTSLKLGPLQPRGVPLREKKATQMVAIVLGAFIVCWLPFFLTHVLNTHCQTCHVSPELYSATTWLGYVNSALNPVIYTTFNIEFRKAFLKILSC
As a reminder, the Ki is the equilibrium dissociation constant of an inhibitor or competing ligand from its target. As for `O=C([C@@H]1C[C@H]1CN1CCN(c2csc3cc(C(F)(F)F)ccc23)CC1)N1CCC(Nc2ccc(Cl)cc2)CC1` [compound 832495], the Ki is 63.6 nM.

Still in this assay, the particulars now being: read-out: D3 Ki.
In the case of `O=C(N[C@H]1CC[C@H](O)CC1)[C@@H]1C[C@H]1CN1CCC(c2cc3ccccc3s2)CC1` [compound 831950], the Ki amounted to 5.48 nM. Same read-out and setting: as for `Cc1ccc(S(=O)(=O)n2nc(N3CCN(C[C@@H]4C[C@H]4C(=O)N[C@H]4CC[C@H](O)CC4)CC3)c3sccc32)cc1` [compound 831951], the figure is 36.7 nM.

With `COc1c(F)ccc2c(C3CCN(C[C@@H]4C[C@H]4C(=O)N[C@H]4CC[C@H](O)CC4)CC3)noc12` [compound 831952], the Ki is 42.8 nM. Still for that read-out and setting: as for `O=C(N[C@H]1CC[C@H](O)CC1)[C@@H]1C[C@H]1CN1CCC(c2nn(-c3ccc(C(F)(F)F)cc3)c3ccccc23)CC1` [compound 831953], the figure is 37.4 nM; as for `O=C([C@@H]1C[C@H]1CN1CCC(c2noc3ccsc23)CC1)N1CCC(Cn2ccnc2)CC1` [compound 831957], 63.2 nM. Still for that read-out and setting: with `O=C([C@@H]1C[C@H]1CN1CCN(c2csc3cc(C(F)(F)F)ccc23)CC1)N1CCC(Cn2ccnc2)CC1` [compound 831958] the figure was 13 nM.

As to `COc1cccc2c(C3CCN(C[C@@H]4C[C@H]4C(=O)NCCCc4ccccc4)CC3)noc12` [compound 832102], the Ki was found to be 81.5 nM. On the same count and under the same terms, as for `COc1cccc2c(C3CCN(C[C@@H]4C[C@H]4C(=O)NCCCc4cccnc4)CC3)noc12` [compound 832104], the figure is 620 nM; as for `COc1cccc2c(C3CCN(C[C@@H]4C[C@H]4C(=O)NCCCN4CCCCC4)CC3)noc12` [compound 832108], 178 nM; as for `O=C(NCCCn1ccnc1)C1(CCN2CCC(c3noc4ccsc34)CC2)CC1` [compound 832171], 4.9 nM.

With `O=C(NCCc1ccccc1)C1(CCN2CCC(c3noc4ccsc34)CC2)CC1` [compound 832180], the Ki is 91 nM. In the case of `Cn1nc(N2CCN(C[C@@H]3C[C@H]3C(=O)N3CCC(n4ccnc4)CC3)CC2)c2sccc21` [compound 832207], the Ki was determined as 54.8 nM. Same read-out and setting: as for `O=C(CCCN1CCN(c2noc3ccsc23)CC1)N1CCC(n2ccnc2)CC1` [compound 832212], the figure is 302 nM; as for `CN1CCC[C@@H]1CCNC(=O)[C@@H]1C[C@H]1CN1CCN(c2csc3cc(C(F)(F)F)ccc23)CC1` [compound 832216], 76.5 nM. Still for that read-out and setting: with `O=C(N1CCCC1)C1(CCN2CCC(c3noc4ccsc34)CC2)CC1` [compound 832239] the figure was 207 nM; with `O=C(NCCCN1CCOCC1)C1(CCN2CCC(c3noc4ccsc34)CC2)CC1` [compound 832240], 186 nM; with `O=C(N[C@H]1CC[C@H](O)CC1)[C@@H]1C[C@H]1CN1CCC(c2noc3c(C(F)(F)F)cccc23)CC1` [compound 832271], 112 nM. Take `O=C(NCCCN1CCCCC1)[C@@H]1C[C@H]1CN1CCC(c2noc3c(C(F)(F)F)cccc23)CC1` [compound 832272]: the Ki was found to be 145 nM. On the same count and under the same terms, as for `O=C(NCCCn1ccnc1)[C@@H]1C[C@H]1CN1CCC(c2noc3c(C(F)(F)F)cccc23)CC1` [compound 832274], the figure is 52.4 nM. The same measure, in the same setting: with `O=C(N[C@H]1CC[C@H](O)CC1)C1(CCN2CCC(c3noc4ccsc34)CC2)CC1` [compound 832317] the figure was 943 nM.

With `O=C(NCCCc1cc[nH]c1)[C@@H]1C[C@H]1CN1CCN(c2csc3cc(C(F)(F)F)ccc23)CC1` [compound 832494], the Ki was 25 nM. Still for that read-out and setting: with `N=C(N)N1CCC(CNC(=O)[C@@H]2C[C@H]2CN2CCN(c3csc4cc(C(F)(F)F)ccc34)CC2)CC1` [compound 832496] the figure was 3.66 nM; with `O=C(NCCSc1ccc(Cl)cc1)[C@@H]1C[C@H]1CN1CCN(c2csc3cc(C(F)(F)F)ccc23)CC1` [compound 832497], 38 nM. For the molecule `O=C(NCCN1CCNC1=O)[C@@H]1C[C@H]1CN1CCN(c2csc3cc(C(F)(F)F)ccc23)CC1` [compound 832498], the Ki was 70.3 nM.

(Values after US7772252B2, “Heterocyclic substituted carbonyl derivatives and their use as dopamine D3 receptor ligands” (Aventis Pharmaceuticals Inc., priority 2001, dated 2010).)
